The test system of series [1] is Leishmania aethiopica. Briefly: Antileishmanial activity against promastigote stage of Leishmania aethiopica assessed as parasite growth inhibition after 24 hrs by Alamar blue assay. The format is functional. (Alamar Blue is a resazurin reagent that responds to reducing activity.)
Series [2] relates to Mus musculus. Briefly: Acute toxicity in mouse assessed as change in liver texture at 100 mg/kg, ip by microscopic method. Conditions: in vivo. The format is organism-based.
Series [3] concerns Mus musculus. Briefly: Acute toxicity in mouse assessed as mortality at 25 to 250 mg/kg/day administered as single dose via oral gavage measured after 3 days. The format is organism-based. Conditions: in vivo, 72 h.
Series [4] deals with Mus musculus. Briefly: Acute toxicity in mouse assessed as change in body weight at 25 to 250 mg/kg/day administered as single dose via oral gavage measured after 3 days. The class given is organism-based. Conditions: in vivo, 72 h.
Series [5] relates to Mus musculus. Briefly: Acute toxicity in mouse assessed as change in kidney texture at 100 mg/kg, ip by microscopic method. The format is organism-based. Conditions: in vivo.
Series [6] has as its system Mus musculus. Briefly: Acute toxicity in mouse assessed as change in spleen texture at 250 mg/kg/day administered as single dose via oral gavage by microscopic method. The format is organism-based. Conditions: in vivo.
Series [7] has as its system Leishmania aethiopica. Briefly: Potency index, ratio of mitefosine IC50 to test compound IC50 for promastigote stage of Leishmania aethiopica. The class given is functional.
For series [8], the system named is Mus musculus. Briefly: Acute toxicity in mouse assessed as change in liver texture at 250 mg/kg/day administered as single dose via oral gavage by microscopic method. The format is organism-based. Conditions: in vivo.
Series [9] relates to Mus musculus. Briefly: Acute toxicity in mouse assessed as mortality up to 100 mg/kg, ip after 7 days. Conditions: in vivo, 168 h. The format is organism-based.
The test system of series [10] is Mus musculus. Briefly: Acute toxicity in mouse assessed as change in kidney texture at 250 mg/kg/day administered as single dose via oral gavage by microscopic method. The format is organism-based. Conditions: in vivo.
Series [11] concerns Mus musculus. Briefly: Acute toxicity in mouse assessed as change in spleen texture at 100 mg/kg, ip by microscopic method. The format is organism-based. Conditions: in vivo.

Data on 22 molecules can be found in ChEMBL document CHEMBL4002612, “Study of antileishmanial activity of 2-aminobenzoyl amino acid hydrazides and their quinazoline derivatives” (Bioorg Med Chem Lett, 2017).

In the case of `COC(=O)CNC(=O)c1ccccc1N`, in the series with Leishmania aethiopica [1], the IC50 turned out to be 29.2 µM.

As for `COC(=O)CCNC(=O)c1ccccc1N`, the half-inhibitory concentration (IC50) in the series on Leishmania aethiopica [1] was 26.4 µM.

As to `COC(=O)CCCNC(=O)c1ccccc1N`, in the series on Leishmania aethiopica [1], the IC50 came to 17.3 µM.

Take `COC(=O)CCCCCNC(=O)c1ccccc1N`: the IC50 in the series on Leishmania aethiopica [1] is 21.3 µM.

For the molecule `NNC(=O)CCCCCNC(=O)c1ccccc1N`, the Activity result with Mus musculus [2], in the series on Mus musculus [3], in the series on Mus musculus [4], with Mus musculus [5], in the series with Mus musculus [6] and in the series on Mus musculus [8] was “Non-Toxic” in each case. Besides, the Activity entry in the series with Mus musculus [9], in the series with Mus musculus [10] and in the series with Mus musculus [11] was “Non-Toxic” each time. For the same molecule, the IC50 in the series on Leishmania aethiopica [1] was found to be 0.051 µM. The “Ratio IC50” value in the series with Leishmania aethiopica [7] worked out at 154.

Regarding `O=C(CNC(=O)c1ccccc1/N=C/c1ccc(Cl)cc1)N/N=C\c1ccc(Cl)cc1`, the Activity entry with Mus musculus [2], in the series with Mus musculus [3], in the series with Mus musculus [4], in the series with Mus musculus [5], in the series on Mus musculus [6] and in the series on Mus musculus [8] was “Non-Toxic” each time. Besides, the Activity result in the series on Mus musculus [9], in the series on Mus musculus [10] and with Mus musculus [11] was “Non-Toxic” throughout. Besides, in the series on Leishmania aethiopica [1], the IC50 was determined as 0.052 µM.

On to `O=C(CCCN1C(=O)c2ccccc2NC1c1ccco1)N/N=C/c1ccco1` (centres undefined), for which the half-maximal inhibitory concentration (IC50) in the series with Leishmania aethiopica [1] was 10.4 µM.

In the case of `O=C(CCCCCN1C(=O)c2ccccc2NC1c1ccc2c(c1)OCO2)N/N=C/c1ccc2c(c1)OCO2` (centres undefined), the half-inhibitory concentration (IC50) in the series on Leishmania aethiopica [1] was found to be 9.33 µM.

On to `O=C(CN1C(=O)c2ccccc2NC1c1ccc2c(c1)OCO2)N/N=C/c1ccc2c(c1)OCO2` (centres undefined), for which, in the series on Leishmania aethiopica [1], the IC50 stood at 12 µM.

Turning to `O=C(N/N=C/c1ccc(Cl)cc1)C(Cc1ccccc1)N1C(=O)c2ccccc2NC1c1ccc(Cl)cc1` (centres undefined), in the series on Leishmania aethiopica [1], the IC50 is 10.1 µM.

For `CC(C(=O)N/N=C/c1ccco1)N1C(=O)c2ccccc2NC1c1ccco1` (centres undefined), in the series with Leishmania aethiopica [1], the half-maximal inhibitory concentration (IC50) is 10.7 µM.

`COC(=O)C(Cc1ccccc1)NC(=O)c1ccccc1N` (centres undefined): the 50% inhibitory concentration (IC50) with Leishmania aethiopica [1] is 15.6 µM.

In the case of `NNC(=O)CNC(=O)c1ccccc1N`, the Activity result with Mus musculus [2], in the series with Mus musculus [3], with Mus musculus [4], with Mus musculus [5], in the series with Mus musculus [6] and with Mus musculus [8] was “Non-Toxic” each time. The Activity result in the series on Mus musculus [9], in the series on Mus musculus [10] and with Mus musculus [11] was “Non-Toxic” throughout. In the series on Leishmania aethiopica [1], the 50% inhibitory concentration (IC50) was determined as 0.127 µM.

With `NNC(=O)C(Cc1ccccc1)NC(=O)c1ccccc1N` (centres undefined), the IC50 with Leishmania aethiopica [1] was found to be 2.9 µM.

Turning to `CC(NC(=O)c1ccccc1N)C(=O)NN` (centres undefined), the Activity result in the series on Mus musculus [2], in the series on Mus musculus [3], with Mus musculus [4], in the series with Mus musculus [5], in the series with Mus musculus [6] and with Mus musculus [8] was “Non-Toxic” each time. Also, the Activity result with Mus musculus [9], in the series on Mus musculus [10] and in the series with Mus musculus [11] was “Non-Toxic” each time. Moreover, in the series with Leishmania aethiopica [1], the IC50 is 0.185 µM.

On to `O=C(CCNC(=O)c1ccccc1/N=C/c1ccc(Cl)cc1)N/N=C/c1ccc(Cl)cc1`, for which the 50% inhibitory concentration (IC50) with Leishmania aethiopica [1] was 4.34 µM.

With `COC(=O)C(C)NC(=O)c1ccccc1N` (centres undefined), the concentration for half-maximal inhibition (IC50) in the series on Leishmania aethiopica [1] is 23 µM.

As to `O=C(CCCCCN1C(=O)c2ccccc2NC1c1ccco1)N/N=C/c1ccco1` (centres undefined), the IC50 with Leishmania aethiopica [1] stood at 11.1 µM.

As for `O=C(CCN1C(=O)c2ccccc2NC1c1ccccc1)N/N=C/c1ccccc1` (centres undefined), the IC50 in the series with Leishmania aethiopica [1] was determined as 12.6 µM.

Consider `COc1ccc(/C=N/NC(=O)CN2C(=O)c3ccccc3NC2c2ccc(OC)cc2)cc1` (centres undefined), for which the IC50 with Leishmania aethiopica [1] is 9.07 µM.

Consider `O=C(N/N=C/c1ccco1)C(Cc1ccccc1)N1C(=O)c2ccccc2NC1c1ccco1` (centres undefined), for which, in the series on Leishmania aethiopica [1], the IC50 was 9.05 µM.

With `C[C@@H]1[C@H](O)[C@@H](C)/C=C/C=C/C=C/C=C/C=C/C=C/C=C/[C@H](O[C@@H]2O[C@H](C)[C@@H](O)[C@H](N)[C@@H]2O)C[C@@H]2O[C@](O)(C[C@@H](O)C[C@@H](O)[C@H](O)CC[C@@H](O)C[C@@H](O)CC(=O)O[C@H]1C)C[C@H](O)[C@H]2C(=O)O.C[C@H](CCC(=O)O)[C@H]1CC[C@H]2[C@@H]3CC[C@@H]4C[C@H](O)CC[C@]4(C)[C@H]3C[C@H](O)[C@]12C`, the half-maximal inhibitory concentration (IC50) in the series with Leishmania aethiopica [1] came to 0.035 µM.

Usually IC50 stands for the concentration needed to halve the response being measured.
